From publication PMC11683865, “CACHE Challenge #1: Docking with GNINA Is All You Need” (Journal of Chemical Information and Modeling, 2024)
pKd: −log10 of the molar value. Like-named read-outs stand apart in the source and are kept apart here.

Target: T1, Leucine-rich repeat serine/threonine-protein kinase 2 (LRRK2), WD-40 repeat (WDR) domain (Homo sapiens, UniProt Q5S007)
T1 construct: WD-40 repeat (WDR) domain
T1 sequence (Q5S007 2142-2527): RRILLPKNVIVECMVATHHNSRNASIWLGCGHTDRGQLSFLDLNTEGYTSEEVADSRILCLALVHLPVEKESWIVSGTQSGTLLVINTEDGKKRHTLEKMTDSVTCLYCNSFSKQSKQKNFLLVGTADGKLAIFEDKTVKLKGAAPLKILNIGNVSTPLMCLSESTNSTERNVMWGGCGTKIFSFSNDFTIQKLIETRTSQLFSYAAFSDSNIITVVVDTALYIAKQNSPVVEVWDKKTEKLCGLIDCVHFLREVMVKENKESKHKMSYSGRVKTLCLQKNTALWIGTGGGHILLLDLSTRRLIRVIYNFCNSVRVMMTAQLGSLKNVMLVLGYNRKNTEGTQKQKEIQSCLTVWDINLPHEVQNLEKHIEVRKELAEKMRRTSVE
Experiment: SPR
Format: binding

SMILES	pKd (read-out: Kd)	pKd
O=C(NCc1ccc[nH]c1=O)N1CCC(CCc2ccc(F)cc2F)CC1 [CACHE_1181_50]	< 4.00	
O=C(CN1CCC2(C1)C(=O)Nc1ccccc12)Nc1ccc2c(c1)CCC2 (centres unmarked) [CACHE_1181_33]		< 4.00
